Laboratory results: ChEMBL document CHEMBL3286094, “Synthesis and biological evaluation of novel bisbenzimidazoles as Escherichia coli topoisomerase IA inhibitors and potential antibacterial agents” (J Med Chem, 2014)
≈ marks a conversion by molar mass, not a printed value.

How the values were obtained:
Escherichia coli [1] = assay: Bactericidal activity against Escherichia coli ATCC 25922 by agar plating method; type: functional
Escherichia coli [2] = assay: Antibacterial activity against ciprofloxacin-resistant Escherichia coli 72 assessed as growth inhibition after 18 to 24 hrs by broth microdilution method; type: functional
Escherichia coli [3] = assay: Antibacterial activity against ampicillin/ciprofloxacin/gentamicin/tetracycline-resistant Escherichia coli 555 assessed as growth inhibition after 18 to 24 hrs by broth microdilution method; type: functional
Escherichia coli [4] = assay: Antibacterial activity against ampicillin/trimethoprim/cefazolinl/piperacillin/cefuroxime/cefoxitine/cefepime/cefotaxime-resistant Escherichia coli KP21 isolated from water source assessed as growth inhibition after 18 to 24 hrs by broth microdilution method
Escherichia coli [5] = assay: Antibacterial activity against chloramphenicol/ampicillin/kanamycin/trimethoprim/ciprofloxacin/nalidixic acid-resistant Escherichia coli 151 assessed as growth inhibition after 18 to 24 hrs by broth microdilution method; type: functional
Escherichia coli [6] = assay: Antibacterial activity against tetracycline/trimethoprim-resistant Escherichia coli IST isolated from water source assessed as growth inhibition after 18 to 24 hrs by broth microdilution method
Escherichia coli [7] = assay: Antibacterial activity against ampicillin/chloramphenicol/ciprofloxacin/gentamicin/tetracycline-resistant Escherichia coli 401 assessed as growth inhibition after 18 to 24 hrs by broth microdilution method; type: functional
Escherichia coli [8] = assay: Antibacterial activity against ampicillin/chloramphenicol/tetracycline/trimethoprim/ciprofloxacin-resistant Escherichia coli KK45 isolated from water source assessed as growth inhibition after 18 to 24 hrs by broth microdilution method
Escherichia coli [9] = assay: Antibacterial activity against ampicillin/tetracycline/gentamicin-resistant Escherichia coli 451 assessed as growth inhibition after 18 to 24 hrs by broth microdilution method; type: functional
Escherichia coli [10] = assay: Bactericidal activity against ampicillin/tetracycline/gentamicin-resistant Escherichia coli 451 by agar plating method; type: functional
Escherichia coli [11] = assay: Bactericidal activity against chloramphenicol/ampicillin/trimethoprim/ciprofloxacin/nalidixic acid-resistant Escherichia coli 59 by agar plating method; type: functional
Escherichia coli [12] = assay: Bactericidal activity against ampicillin/trimethoprim/piperacillin-resistant Escherichia coli MKNJ isolated from water source by agar plating method
Escherichia coli [13] = assay: Antibacterial activity against cefazolinl/ampicillin/piperacillin/cefuroxime/cefepime/cefotaxime/tetracycline/ciprofloxacin-resistant Escherichia coli NG3 isolated from water source assessed as growth inhibition after 18 to 24 hrs by broth microdilution method
Escherichia coli [14] = assay: Antibacterial activity against Escherichia coli ATCC 25922 assessed as growth inhibition after 18 to 24 hrs by broth microdilution method; type: functional
Escherichia coli [15] = assay: Antibacterial activity against multidrug-resistant Escherichia coli IS 54 isolated from water source assessed as growth inhibition after 18 to 24 hrs by broth microdilution method; settings: IS 54, Water
Escherichia coli [16] = assay: Antibacterial activity against multidrug-resistant Escherichia coli IP9 isolated from water source assessed as growth inhibition after 18 to 24 hrs by broth microdilution method
Escherichia coli [17] = assay: Antibacterial activity against ampicillin/kanamycin/trimethoprim/tetracyclin/ciprofloxacin/nalidixic acid-resistant Escherichia coli 81 assessed as growth inhibition after 18 to 24 hrs by broth microdilution method; type: functional
Escherichia coli [18] = assay: Bactericidal activity against ampicillin/ciprofloxacin/gentamicin/tetracycline-resistant Escherichia coli 555 by agar plating method; type: functional
Escherichia coli [19] = assay: Antibacterial activity against cefazolinl/ampicillin/piperacillin/cefuroxime/cefepime/cefotaxime/tetracycline/trimethoprim-resistant Escherichia coli KK16 isolated from water source assessed as growth inhibition after 18 to 24 hrs by broth microdilution method
Escherichia coli [20] = assay: Bactericidal activity against multidrug-resistant Escherichia coli IS 54 isolated from water source by agar plating method; settings: IS 54, Water
Escherichia coli [21] = assay: Bactericidal activity against cefazolinl/ampicillin/piperacillin/cefuroxime/cefepime/cefotaxime/tetracycline/ciprofloxacin-resistant Escherichia coli NG3 isolated from water source by agar plating method
Escherichia coli [22] = assay: Bactericidal activity against ampicillin/trimethoprim/cefazolinl/piperacillin/cefuroxime/cefoxitine/cefepime/cefotaxime-resistant Escherichia coli KP21 isolated from water source by agar plating method
Escherichia coli [23] = assay: Bactericidal activity against chloramphenicol/ampicillin/kanamycin/trimethoprim/ciprofloxacin/nalidixic acid-resistant Escherichia coli 132 by agar plating method; type: functional
Escherichia coli [24] = assay: Antibacterial activity against ampicillin/tetracycline/piperacillin-resistant Escherichia coli WB31 isolated from water source assessed as growth inhibition after 18 to 24 hrs by broth microdilution method
Escherichia coli [25] = assay: Bactericidal activity against ampicillin/tetracycline/piperacillin-resistant Escherichia coli WB31 isolated from water source by agar plating method
Escherichia coli [26] = assay: Bactericidal activity against cefazolinl/ampicillin/piperacillin/cefuroxime/cefepime/cefotaxime/tetracycline/trimethoprim-resistant Escherichia coli KK16 isolated from water source by agar plating method
Escherichia coli [27] = assay: Bactericidal activity against Escherichia coli DH5[alpha] by agar plating method; type: functional
Escherichia coli [28] = assay: Bactericidal activity against tetracycline/trimethoprim-resistant Escherichia coli IST isolated from water source by agar plating method
Escherichia coli [29] = assay: Antibacterial activity against gentamicin/kanamycin/tetracycline/nalidixic acid-resistant Escherichia coli 360 assessed as growth inhibition after 18 to 24 hrs by broth microdilution method; type: functional
Escherichia coli [30] = assay: Antibacterial activity against ampicillin/trimethoprim/nalidixic acid-resistant Escherichia coli 118 assessed as growth inhibition after 18 to 24 hrs by broth microdilution method; type: functional
Escherichia coli [31] = assay: Antibacterial activity against Escherichia coli DH5[alpha] assessed as growth inhibition after 18 to 24 hrs by broth microdilution method; type: functional
Escherichia coli [32] = assay: Bactericidal activity against ampicillin/trimethoprim/nalidixic acid-resistant Escherichia coli 118 by agar plating method; type: functional
Escherichia coli [33] = assay: Antibacterial activity against ampicillin/trimethoprim/piperacillin-resistant Escherichia coli MKNJ isolated from water source assessed as growth inhibition after 18 to 24 hrs by broth microdilution method
Escherichia coli [34] = assay: Antibacterial activity against chloramphenicol/ampicillin/kanamycin/trimethoprim/ciprofloxacin/nalidixic acid-resistant Escherichia coli 132 assessed as growth inhibition after 18 to 24 hrs by broth microdilution method; type: functional

CCOc1ccc(-c2nc3ccc(-c4nc5ccc(N6CCN(CCN(C)C)CC6)cc5[nH]4)cc3[nH]2)cc1
MBC (Escherichia coli [1]): 16 µg/mL (≈ 31.4 µM) | MIC50 (Escherichia coli [2]): 32 µg/mL (≈ 62.8 µM) | MIC90 (Escherichia coli [2]): 57.2 µg/mL (≈ 112 µM) | MIC50 (Escherichia coli [3]): 32 µg/mL (≈ 62.8 µM) | MIC90 (Escherichia coli [3]): 60.4 µg/mL (≈ 119 µM) | MIC50 (Escherichia coli [4]): 32 µg/mL (≈ 62.8 µM) | MIC90 (Escherichia coli [4]): 61.4 µg/mL (≈ 120 µM) | MIC50 (Escherichia coli [5]): 32 µg/mL (≈ 62.8 µM) | MIC90 (Escherichia coli [5]): 61.6 µg/mL (≈ 121 µM) | MIC50 (Escherichia coli [6]): 32 µg/mL (≈ 62.8 µM) | MIC90 (Escherichia coli [6]): 60.6 µg/mL (≈ 119 µM) | MIC50 (Escherichia coli [7]): 16 µg/mL (≈ 31.4 µM) | MIC90 (Escherichia coli [7]): 30.4 µg/mL (≈ 59.6 µM) | MIC50 (Escherichia coli [8]): 16 µg/mL (≈ 31.4 µM) | MIC90 (Escherichia coli [8]): 29.4 µg/mL (≈ 57.7 µM) | MIC50 (Escherichia coli [9]): 32 µg/mL (≈ 62.8 µM) | MIC90 (Escherichia coli [9]): 55.3 µg/mL (≈ 109 µM) | MBC (Escherichia coli [10]): 64 µg/mL (≈ 126 µM) | MBC (Escherichia coli [11]): 32 µg/mL (≈ 62.8 µM) | MBC (Escherichia coli [12]): 32 µg/mL (≈ 62.8 µM) | MIC50 (Escherichia coli [13]): 8 µg/mL (≈ 15.7 µM) | MIC90 (Escherichia coli [13]): 15 µg/mL (≈ 29.4 µM) | MIC50 (Escherichia coli [14]): 8 µg/mL (≈ 15.7 µM) | MIC90 (Escherichia coli [14]): 26.6 µg/mL (≈ 52.2 µM) | MIC50 (Escherichia coli [15]): 32 µg/mL (≈ 62.8 µM) | MIC90 (Escherichia coli [15]): 60.6 µg/mL (≈ 119 µM) | MIC50 (Escherichia coli [16]): 64 µg/mL (≈ 126 µM) | MIC90 (Escherichia coli [16]): 118 µg/mL (≈ 232 µM) | MIC50 (Escherichia coli [17]): 32 µg/mL (≈ 62.8 µM) | MIC90 (Escherichia coli [17]): 60.2 µg/mL (≈ 118 µM) | MBC (Escherichia coli [18]): 64 µg/mL (≈ 126 µM) | MIC50 (Escherichia coli [19]): 16 µg/mL (≈ 31.4 µM) | MIC90 (Escherichia coli [19]): 27.6 µg/mL (≈ 54.2 µM) | MBC (Escherichia coli [20]): 64 µg/mL (≈ 126 µM) | MBC (Escherichia coli [21]): 16 µg/mL (≈ 31.4 µM) | MBC (Escherichia coli [22]): 64 µg/mL (≈ 126 µM) | MBC (Escherichia coli [23]): 128 µg/mL (≈ 251 µM) | MIC50 (Escherichia coli [24]): 16 µg/mL (≈ 31.4 µM) | MIC90 (Escherichia coli [24]): 29.4 µg/mL (≈ 57.7 µM) | MBC (Escherichia coli [25]): 32 µg/mL (≈ 62.8 µM) | MBC (Escherichia coli [26]): 32 µg/mL (≈ 62.8 µM) | MBC (Escherichia coli [27]): 2 µg/mL (≈ 3.92 µM) | MBC (Escherichia coli [28]): 64 µg/mL (≈ 126 µM) | MIC50 (Escherichia coli [29]): 64 µg/mL (≈ 126 µM) | MIC90 (Escherichia coli [29]): 121 µg/mL (≈ 237 µM) | MIC50 (Escherichia coli [30]): 8 µg/mL (≈ 15.7 µM) | MIC90 (Escherichia coli [30]): 15.2 µg/mL (≈ 29.8 µM) | MIC50 (Escherichia coli [31]): 1 µg/mL (≈ 1.96 µM) | MIC90 (Escherichia coli [31]): 14.5 µg/mL (≈ 28.5 µM) | MBC (Escherichia coli [32]): 16 µg/mL (≈ 31.4 µM) | MIC50 (Escherichia coli [33]): 16 µg/mL (≈ 31.4 µM) | MIC90 (Escherichia coli [33]): 30.6 µg/mL (≈ 60 µM) | MIC50 (Escherichia coli [34]): 64 µg/mL (≈ 126 µM) | MIC90 (Escherichia coli [34]): 123 µg/mL (≈ 241 µM)

CCOc1ccc(-c2nc3ccc(-c4nc5ccc(N6CCN(CC)CC6)cc5[nH]4)cc3[nH]2)cc1
MBC (Escherichia coli [1]): 4 µg/mL (≈ 8.57 µM) | MIC50 (Escherichia coli [2]): 4 µg/mL (≈ 8.57 µM) | MIC90 (Escherichia coli [2]): 7.2 µg/mL (≈ 15.4 µM) | MIC50 (Escherichia coli [3]): 8 µg/mL (≈ 17.1 µM) | MIC90 (Escherichia coli [3]): 13.9 µg/mL (≈ 29.8 µM) | MIC50 (Escherichia coli [4]): 4 µg/mL (≈ 8.57 µM) | MIC90 (Escherichia coli [4]): 6.8 µg/mL (≈ 14.6 µM) | MIC50 (Escherichia coli [5]): 4 µg/mL (≈ 8.57 µM) | MIC90 (Escherichia coli [5]): 6.8 µg/mL (≈ 14.6 µM) | MIC50 (Escherichia coli [6]): 4 µg/mL (≈ 8.57 µM) | MIC90 (Escherichia coli [6]): 3.7 µg/mL (≈ 7.93 µM) | MIC50 (Escherichia coli [7]): 2 µg/mL (≈ 4.29 µM) | MIC90 (Escherichia coli [7]): 3.7 µg/mL (≈ 7.93 µM) | MIC50 (Escherichia coli [8]): 4 µg/mL (≈ 8.57 µM) | MIC90 (Escherichia coli [8]): 7.5 µg/mL (≈ 16.1 µM) | MIC50 (Escherichia coli [9]): 2 µg/mL (≈ 4.29 µM) | MIC90 (Escherichia coli [9]): 3.6 µg/mL (≈ 7.72 µM) | MBC (Escherichia coli [10]): 4 µg/mL (≈ 8.57 µM) | MBC (Escherichia coli [11]): 8 µg/mL (≈ 17.1 µM) | MBC (Escherichia coli [12]): 8 µg/mL (≈ 17.1 µM) | MIC50 (Escherichia coli [13]): 4 µg/mL (≈ 8.57 µM) | MIC90 (Escherichia coli [13]): 7.7 µg/mL (≈ 16.5 µM) | MIC50 (Escherichia coli [14]): 1.78 µg/mL (≈ 3.81 µM) | MIC90 (Escherichia coli [14]): 3.1 µg/mL (≈ 6.64 µM) | MIC50 (Escherichia coli [15]): 4 µg/mL (≈ 8.57 µM) | MIC90 (Escherichia coli [15]): 7.1 µg/mL (≈ 15.2 µM) | MIC50 (Escherichia coli [16]): 4 µg/mL (≈ 8.57 µM) | MIC90 (Escherichia coli [16]): 7.2 µg/mL (≈ 15.4 µM) | MIC50 (Escherichia coli [17]): 4 µg/mL (≈ 8.57 µM) | MIC90 (Escherichia coli [17]): 6.5 µg/mL (≈ 13.9 µM) | MBC (Escherichia coli [18]): 16 µg/mL (≈ 34.3 µM) | MIC50 (Escherichia coli [19]): 1 µg/mL (≈ 2.14 µM) | MIC90 (Escherichia coli [19]): 1.8 µg/mL (≈ 3.86 µM) | MBC (Escherichia coli [20]): 8 µg/mL (≈ 17.1 µM) | MBC (Escherichia coli [21]): 8 µg/mL (≈ 17.1 µM) | MBC (Escherichia coli [22]): 8 µg/mL (≈ 17.1 µM) | MBC (Escherichia coli [23]): 8 µg/mL (≈ 17.1 µM) | MIC50 (Escherichia coli [24]): 4 µg/mL (≈ 8.57 µM) | MIC90 (Escherichia coli [24]): 7.2 µg/mL (≈ 15.4 µM) | MBC (Escherichia coli [25]): 8 µg/mL (≈ 17.1 µM) | MBC (Escherichia coli [26]): 2 µg/mL (≈ 4.29 µM) | MBC (Escherichia coli [27]): 1 µg/mL (≈ 2.14 µM) | MBC (Escherichia coli [28]): 8 µg/mL (≈ 17.1 µM) | MIC50 (Escherichia coli [29]): 3 µg/mL (≈ 6.43 µM) | MIC90 (Escherichia coli [29]): 58.1 µg/mL (≈ 125 µM) | MIC50 (Escherichia coli [30]): 1 µg/mL (≈ 2.14 µM) | MIC90 (Escherichia coli [30]): 1.4 µg/mL (≈ 3 µM) | MIC50 (Escherichia coli [31]): 0.5 µg/mL (≈ 1.07 µM) | MIC90 (Escherichia coli [31]): 0.7 µg/mL (≈ 1.5 µM) | MBC (Escherichia coli [32]): 2 µg/mL (≈ 4.29 µM) | MIC50 (Escherichia coli [33]): 4 µg/mL (≈ 8.57 µM) | MIC90 (Escherichia coli [33]): 7.6 µg/mL (≈ 16.3 µM) | MIC50 (Escherichia coli [34]): 4 µg/mL (≈ 8.57 µM) | MIC90 (Escherichia coli [34]): 7.2 µg/mL (≈ 15.4 µM)
